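96-well plates; 48 h exposure; 5 concentrations. Endpoints by linear interpolation between flanking doses. Not reached: highest tested concentration assigned. The concentration for 50% growth inhibition is given as GI50.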 Calls of active or inactive are those of the source. Rule as the data show it: active = GI50 up to about 1.1 µM and inactive = higher.
What was measured:
Assay in all cases: inhibition of tumour cell growth, NCI panel, 48 h
SK-MEL-2 = test system: SK-MEL-2
M14 = test system: M14
PC-3 = test system: PC-3
T47D = test system: T47D
HOP-92 = test system: HOP-92
SNB-75 = test system: SNB-75
A498 = test system: A498
UACC-62 = test system: UACC-62
OVCAR-5 = test system: OVCAR-5
NCI-H23 = test system: NCI-H23
MCF7 = test system: MCF7
SNB-19 = test system: SNB-19
HL-60 = test system: HL-60
ACHN = test system: ACHN
Hs-578T = test system: Hs-578T
CAKI-1 = test system: CAKI-1
DU-145 = test system: DU-145
SK-MEL-28 = test system: SK-MEL-28
NCI-H522 = test system: NCI-H522
SR = test system: SR

SMILES	GI50 (SK-MEL-2)	GI50 (M14)	GI50 (PC-3)	GI50 (T47D)	GI50 (HOP-92)	GI50 (SNB-75)	GI50 (A498)	GI50 (UACC-62)	GI50 (OVCAR-5)	GI50 (NCI-H23)	GI50 (MCF7)	GI50 (SNB-19)	GI50 (HL-60)	GI50 (ACHN)	GI50 (Hs-578T)	GI50 (CAKI-1)	GI50 (DU-145)	GI50 (SK-MEL-28)	GI50 (NCI-H522)	GI50 (SR)
O=C(CCc1ccccc1)ON1C(=S)C(c2ccccc2)(c2ccccc2)N=C1Sc1ccccc1	29.8 µM (inactive)	82.6 µM (inactive)	34.3 µM (inactive)	59.4 µM (inactive)	> 100 µM (inactive)	37.9 µM (inactive)	> 100 µM (inactive)	55.1 µM (inactive)	> 100 µM (inactive)	34.4 µM (inactive)	33.7 µM (inactive)	52.7 µM (inactive)	31.6 µM (inactive)	48.1 µM (inactive)	38.7 µM (inactive)	74.1 µM (inactive)	58.2 µM (inactive)			
CN[C@H]1CC[C@]23C[C@]24CC[C@]2(C)[C@@H]([C@H](C)N(C)C)CC[C@@]2(C)[C@@H]4CC[C@H]3C1(C)C	18 µM (inactive)	12.2 µM (inactive)	9.08 µM (inactive)	14.6 µM (inactive)	10.9 µM (inactive)	14.4 µM (inactive)	20.6 µM (inactive)	15.8 µM (inactive)	21 µM (inactive)	15.7 µM (inactive)	15.6 µM (inactive)	16.7 µM (inactive)	10.8 µM (inactive)	15.6 µM (inactive)	16.8 µM (inactive)	21.9 µM (inactive)	14.4 µM (inactive)	12.4 µM (inactive)	17.2 µM (inactive)	
O=C(O)/C(=C\c1ccc(O)cc1)c1cccc2ccccc12	> 100 µM (inactive)	> 100 µM (inactive)	> 100 µM (inactive)	> 100 µM (inactive)	> 100 µM (inactive)	> 100 µM (inactive)	> 100 µM (inactive)	> 100 µM (inactive)	> 100 µM (inactive)	> 100 µM (inactive)		> 100 µM (inactive)		> 100 µM (inactive)	> 100 µM (inactive)	> 100 µM (inactive)	> 100 µM (inactive)	> 100 µM (inactive)	> 100 µM (inactive)	> 100 µM (inactive)
O=S(=O)(O)c1cccc2ccc(O)c(/N=N\c3ccc(S(=O)(=O)c4ccc(/N=N/c5c(O)ccc6cccc(S(=O)(=O)O)c56)cc4)cc3)c12	> 100 µM (inactive)	> 100 µM (inactive)	> 100 µM (inactive)	> 100 µM (inactive)	> 100 µM (inactive)	65.5 µM (inactive)		> 100 µM (inactive)	> 100 µM (inactive)	> 100 µM (inactive)		> 100 µM (inactive)	< 0.01 µM (active)	> 100 µM (inactive)	> 100 µM (inactive)	> 100 µM (inactive)	> 100 µM (inactive)	> 100 µM (inactive)	> 100 µM (inactive)	
Cc1cn(C2CC(N=[N+]=[N-])C(CO)O2)c(=O)n(CCCCBr)c1=O (stereo unspecified)	61 µM (inactive)	> 100 µM (inactive)	26.3 µM (inactive)	> 100 µM (inactive)	> 100 µM (inactive)	63.2 µM (inactive)	> 100 µM (inactive)	> 100 µM (inactive)	> 100 µM (inactive)	96.8 µM (inactive)	60.5 µM (inactive)	> 100 µM (inactive)		> 100 µM (inactive)	> 100 µM (inactive)	> 100 µM (inactive)	> 100 µM (inactive)	> 100 µM (inactive)	> 100 µM (inactive)	
CSCCC(NC(=O)C(Cc1c[nH]c2ccccc12)NC(=O)CCNC(=O)OC(C)(C)C)C(=O)NC(CC(=O)O)C(=O)NC(Cc1ccccc1)C(N)=O (stereo unspecified)	> 50 µM (inactive)	> 50 µM (inactive)	> 50 µM (inactive)	> 50 µM (inactive)	> 50 µM (inactive)	> 50 µM (inactive)	> 50 µM (inactive)	> 50 µM (inactive)	> 50 µM (inactive)		> 50 µM (inactive)		> 50 µM (inactive)		> 50 µM (inactive)	> 50 µM (inactive)	> 50 µM (inactive)	> 50 µM (inactive)	> 50 µM (inactive)	
Cc1nc(Nc2ccccc2Cl)sc1C(=O)CC(=O)C(N)=O	35.1 µM (inactive)	75.3 µM (inactive)	19.7 µM (inactive)	> 100 µM (inactive)	7.98 µM (inactive)	6.87 µM (inactive)	19.7 µM (inactive)	35.1 µM (inactive)	> 100 µM (inactive)	28.2 µM (inactive)	29.3 µM (inactive)	41 µM (inactive)	11.8 µM (inactive)	32.7 µM (inactive)	59.2 µM (inactive)	> 100 µM (inactive)	> 100 µM (inactive)		1.96 µM (inactive)	
Clc1cccc(Cl)c1C1SCc2nc3ncccc3n21 (stereo unspecified)	> 100 µM (inactive)	> 100 µM (inactive)	> 100 µM (inactive)	> 100 µM (inactive)		40.6 µM (inactive)	> 100 µM (inactive)	> 100 µM (inactive)	> 100 µM (inactive)	> 100 µM (inactive)		> 100 µM (inactive)	60.7 µM (inactive)	> 100 µM (inactive)	> 100 µM (inactive)	8.07 µM (inactive)	> 100 µM (inactive)	> 100 µM (inactive)	> 100 µM (inactive)	> 100 µM (inactive)

From ChEMBL document CHEMBL1201862, “PubChem BioAssay data set” (2004)
